In ChEMBL document CHEMBL3407484, “Evolution in medicinal chemistry of ursolic acid derivatives as anticancer agents” (Eur J Med Chem, 2015):

Assays:
Format in all cases: functional, cell-based
[1] = Cytotoxicity against human BGC823 cells by MTT assay; conditions: BGC-823
[2] = test system: HeLa; test: Cytotoxicity against human HeLa cells by MTT assay
[3] = Cytotoxicity against human SKOV3 cells by MTT assay; conditions: SK-OV-3
[4] = test system: HepG2; test: Cytotoxicity against human HepG2 cells by MTT assay

Row | SMILES | IC50 [1] [µM] | IC50 [2] [µM] | IC50 [3] [µM] | IC50 [4] [µM]
1 | CC(=O)O[C@H]1CC[C@]2(C)[C@H]3CC=C4[C@@H]5[C@@H](C)[C@H](C)CC[C@]5(C(=O)NCCCN5CCOCC5)CC[C@@]4(C)[C@]3(C)CC[C@H]2C1(C)C | 4.46 | 2.71 | 7.4 | –
2 | C[C@H]1[C@H](C)CC[C@]2(C(=O)O)CC[C@]3(C)C(=CC[C@@H]4[C@@]5(C)CC[C@H](OC(=O)CCC(=O)OCCOc6no[n+]([O-])c6S(=O)(=O)c6ccccc6)C(C)(C)[C@@H]5CC[C@]43C)[C@H]12 | – | – | – | 3.2
